The values below come from PubChem BioAssay (NCI).

Assay in all cases: growth of human tumour cells (NCI), 48 h
Experiment [1] relates to CCRF-CEM leukemia.
The test system of experiment [2] is UACC-62 melanoma.
In experiment [3] the test system is OVCAR-8 ovarian.
For experiment [4], the system named is MCF7 breast.
Experiment [5] deals with SNB-19 CNS.
Experiment [6] has as its system EKVX NSCLC.
Experiment [7] relates to HOP-62 NSCLC.
Experiment [8] relates to LOX IMVI melanoma.
In experiment [9] the test system is HCT-116 colon.
For experiment [10], the system named is HL-60(TB) leukemia.
Experiment [11] deals with A498 renal.
In experiment [12] the test system is NCI-H23 lung.
Experiment [13] concerns HOP-92 NSCLC.
Experiment [14] concerns DMS 273 small cell lung.

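Five compound concentrations were applied to cells in 96-well plates for 48 hours; endpoints were derived by simple linear interpolation of the resulting dose-response curve. The concentration for 50% growth inhibition is given as GI50. TGI marks complete inhibition of growth.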

Regarding `CN(C)S(=O)(=O)c1cccc(-c2nc3sc4c(c3c(=O)[nH]2)CCCC4)c1`, the TGI in [1], in experiment [2], in [3], in experiment [4], in experiment [5] and in experiment [6] was greater than 100 µM throughout. This molecule also came in with a TGI in experiment [7] greater than 100 µM. For the same molecule, the GI50 in [2] was greater than 100 µM; in [3] it was 1.52 µM; in experiment [4], greater than 100 µM; in experiment [5], 2.91 µM; in experiment [6] it was greater than 100 µM; in experiment [7], 3.73 µM.

Turning to `O=C(/C=C/c1ccsc1)c1ccc(Cl)s1`, the TGI was 63.9 µM in [1]; 37.1 µM in experiment [8]; 60.5 µM in experiment [9]; greater than 100 µM in experiment [2]; greater than 100 µM in experiment [3]; greater than 100 µM in experiment [4]. Moreover, the TGI was 57.2 µM in experiment [10]; greater than 100 µM in experiment [5]; greater than 100 µM in [11]; greater than 100 µM in experiment [6]; greater than 100 µM in [12]; greater than 100 µM in experiment [7].

As to `CC(=O)O[C@H]1CC[C@H]2[C@@H]3CC[C@H]4Nc5c(cnn5S(C)(=O)=O)C[C@]4(C)[C@H]3CC[C@]12C`, the TGI in experiment [13] is greater than 100 µM; in experiment [1], greater than 100 µM; in experiment [9], greater than 100 µM; in experiment [2], greater than 100 µM; in experiment [3], greater than 100 µM; in [4], 82.4 µM. Further, the TGI in [10] is greater than 100 µM; in experiment [5], greater than 100 µM; in experiment [11], greater than 100 µM; in experiment [12], greater than 100 µM; in [7] it was 77.4 µM.

Consider `COc1cc(C2c3cc4c(cc3[C@@H](Nc3ccc(N5CCOCC5)cc3)C3COC(=O)[C@H]23)OCO4)cc(OC)c1O` (some centres not stated), for which the TGI in experiment [13] turned out to be 8.74 µM; in [1], 0.773 µM; in experiment [8] it was 4.27 µM; in [9], 13.7 µM; in experiment [2] it was 3.91 µM; in experiment [3], 3.95 µM. In addition, the TGI came to 14.7 µM in experiment [4]; 0.376 µM in experiment [10]; 1.85 µM in experiment [14]; 2.72 µM in experiment [5]; 3.2 µM in experiment [11]; 5.06 µM in experiment [6]. Further, in [7], the TGI is 0.829 µM.

Take `CC1=NN(C(=O)c2ccccc2)C(=O)C1N=Nc1ccccc1C(=O)O` (configuration not stated): the TGI in experiment [13] is greater than 100 µM; in [1], greater than 50.7 µM; in [8], greater than 100 µM; in experiment [9], greater than 100 µM; in experiment [2], 22.9 µM; in [3], greater than 100 µM. Also, the TGI is 19 µM in experiment [4]; greater than 33.2 µM in experiment [10]; greater than 100 µM in experiment [14]; greater than 100 µM in experiment [5]; greater than 100 µM in experiment [11]; greater than 100 µM in experiment [6]. For the same molecule, the results for the TGI in experiment [12] and in experiment [7] were greater than 40.6 µM and greater than 100 µM, respectively.

Turning to `Cn1nc2ccc3nccc(NCCNCCCl)c3c2n1`, the TGI in experiment [13], in experiment [1], in experiment [8], in [9], in [2] and in experiment [3] was greater than 100 µM throughout. Further, the TGI in experiment [10], in experiment [14], in experiment [5], in experiment [6] and in experiment [7] was greater than 100 µM in each case.

For `CCOC(=O)CCc1c(C)c2c(O)cc(O)cc2oc1=O`, the TGI in experiment [13], in [1], in experiment [8], in experiment [9], in experiment [2] and in experiment [3] was greater than 100 µM throughout. For the same molecule, the TGI in experiment [4], in experiment [10], in experiment [14], in experiment [5], in experiment [11] and in experiment [6] was greater than 100 µM each time. Besides, the TGI in experiment [12] and in [7] was greater than 100 µM each time.

For `COC(=O)C[C@](O)(CCC(C)(C)O)C(=O)O[C@@H]1C(OC)=C[C@]23CCCN2CCc2cc4c(cc2[C@H]13)OCO4`, the TGI stood at 0.653 µM in experiment [13]; 0.426 µM in [8]; 0.15 µM in [9]; 1.12 µM in experiment [2]; 0.571 µM in experiment [3]; 0.113 µM in [4]. Moreover, the TGI was 0.743 µM in [10]; 0.131 µM in experiment [14]; 0.28 µM in experiment [5]; 0.26 µM in experiment [11]; 0.43 µM in experiment [6]; 0.323 µM in [12]. In [7], this molecule showed a TGI of 0.59 µM.

For the molecule `CCOC(=O)C1CCn2c(nc3c(=O)n(C)c(=O)n(C)c32)S1` (configuration not stated), the TGI in [1], in experiment [8], in experiment [9], in experiment [2], in [3] and in experiment [10] was greater than 100 µM in each case. In addition, the TGI in experiment [14], in experiment [5], in experiment [6], in [12] and in [7] was greater than 100 µM in each case.
